Reference: publication PMC11279566, “Novel Coumarin–Nucleobase Hybrids with Potential Anticancer Activity: Synthesis, In Vitro Cell-Based Evaluation, and Molecular Docking” (Pharmaceuticals, 2024)
Like-named read-outs stand apart in the source and are kept apart here.

How the values were obtained:
[1] = test system: human acute T lymphoblastic leukemia cell lines (MOLT-3); design: method as in PMID 25078311; settings: antiproliferative activity, read-out: IC50 against MOLT3 cell line; cited from earlier work
[2] = test system: human prostate cancer cell line (DU145); design: method as in PMID 23124212; settings: read-out: IC50 against DU145 cell line; cited from earlier work
[3] = test system: human laryngeal tumor cells (Hep-2); experiment: colorimetric MTT cytotoxicity assay, Hep-2; type: cell-based; settings: for IC50: Homo sapiens, MTT, n = 3, compounds as HP-β-CD inclusion complex; for Selectivity Index Hep-2 24 h: IC50 of HaCat / IC50 of Hep-2, 24 h
Protocol: (§1) The potential antitumor activity of eight new hybrids was evaluated through colorimetric microculture MTT assay against three tumor cell lines: human colon carcinoma cells (HCT116), human laryngeal tumor cells (Hep-2), and human lung carcinoma cells (A549). The hybridized compounds were also assayed against the non-tumor cell line HaCat (human keratinocyte) in order to obtain an indication of their selective cytotoxicity. Also, the commercial anticancer drug doxorubicin was employed as a positive drug standard to compare the cytotoxicity activities. Each experiment was carried out in triplicate on three different days. The selectivity index (SI) was calculated as the ratio between the IC50 (concentration that reduces cell viability by 50%) of HaCat (non-tumor line) and the IC50 of the tumor lines.
(§2) A total of 1 mL of an ethanolic solution containing compounds 7a,b, 8a,b, 9a,b, or 10a,b (0.004 mol L^−1) was vigorously stirred with 1 mL of an aqueous solution of HP-β-CD (0.004 mol L^−1). The resulting mixture was kept under stirring until a clear solution was obtained. The final solution was concentrated under a vacuum to remove the solvent, and the remaining water was removed by lyophilization to give a water-soluble compound of the HP-β-CD complex in a powder form. The stock solutions of the compounds were prepared by dissolving the complexed compounds in 200 µL of DMSO, followed by dissolving in 1800 µL of Dulbecco’s Modified Eagle Medium (DMEM). The stock solution and dilutions were prepared prior to the cytotoxicity assays.
(§3) The human colon carcinoma (HCT116), human laryngeal tumor (Hep-2), and human lung carcinoma (A549) cell lines, and the non-tumor human keratinocyte cell line (HaCat) were purchased from Rio de Janeiro Cell Bank. The cells were maintained in DMEM supplemented with […]; Life Technologies, Carlsbad, CA, USA) and 1% penicillin–streptomycin in a humidified 5% CO2 atmosphere at 37 °C.
(§4) Cytotoxicity was assayed through the colorimetric microculture MTT assay. Cell suspensions were plated in 96-well plates in triplicate at an initial density of 7 × 10^4 cells mL^−1 and incubated at 37 °C for 24 h. After the incubation, the cells were treated with various concentrations of the evaluated compounds (7a,b, 8a,b, 9a,b, or 10a,b) and incubated for 24 and 48 h. After the treatment, the medium was removed, and an MTT solution (0.4 mg mL^−1) was added to each well and further incubated for 2 h at 37 °C. Then, DMSO (100 µL) was added for the solubilization of the formazan crystals, and the absorbance intensities were measured in a microplate reader (SpectraMax M2e, Molecular Devices, Sunnyvale, CA, USA) at 570 nm. The percentage of viable cells was calculated in relation to the control to determine the cytotoxic concentration that reduces 50% of the cell viability (IC50).

[4] = test system: human colon carcinoma cells (HCT116); experiment: colorimetric MTT cytotoxicity assay, HCT116; type: cell-based; settings: for IC50: Homo sapiens, HCT-116, MTT, n = 3, compounds as HP-β-CD inclusion complex; for Selectivity Index HCT116 24 h: IC50 of HaCat / IC50 of HCT116, 24 h; for Selectivity Index HCT116 48 h: IC50 of HaCat / IC50 of HCT116, 48 h
Protocol: as §1, §2, §3, §4

[5] = test system: human lung carcinoma cells (A549); experiment: colorimetric MTT cytotoxicity assay, A549; type: cell-based; settings: for IC50: Homo sapiens, MTT, n = 3, compounds as HP-β-CD inclusion complex
Protocol: as §1, §2, §3, §4

[6] = test system: HaCat (human keratinocyte); experiment: colorimetric MTT cytotoxicity assay, non-tumor HaCat; type: cell-based; settings: for IC50: Homo sapiens, HaCat non-tumor line, MTT, n = 3, compounds as HP-β-CD inclusion complex
Protocol: as §1, §2, §3, §4

[7] = Hep-2, 24 h, read-out: IC50 (µM ± SD) Hep-2 24 h
[8] = Hep-2, 48 h, read-out: IC50 (µM ± SD) Hep-2 48 h
[9] = HCT116, 24 h, read-out: IC50 (µM ± SD) HCT116 24 h
[10] = HCT116, 48 h, read-out: IC50 (µM ± SD) HCT116 48 h
[11] = A549, 24 h, read-out: IC50 (µM ± SD) A549 24 h
[12] = A549, 48 h, read-out: IC50 (µM ± SD) A549 48 h
[13] = 24 h, read-out: IC50 (µM ± SD) HaCat 24 h
[14] = 48 h, read-out: IC50 (µM ± SD) HaCat 48 h

Row | Structure (SMILES) | melting point | IC50 [1] [µM] | IC50 [2] [µM] | IC50 [3, 7] [µM] | IC50 [3, 8] [µM] | IC50 [4, 9] [µM] | IC50 [4, 10] [µM] | IC50 [5, 11] [µM] | IC50 [5, 12] [µM] | IC50 [6, 13] [µM] | IC50 [6, 14] [µM] | Selectivity Index HCT116 24 h [4] | Selectivity Index Hep-2 24 h [3] | activity compared to doxorubicin (fold) ([4]; HCT116 cell line, IC50 relative to doxorubicin) | Selectivity Index HCT116 48 h [4] | cytotoxicity effect against A549 cells (in words) ([5]; 24 and 48 h treatments) | cytotoxicity against the non-tumor cells HaCat (in words) ([6]; highest evaluated concentration 100 μM, all exposure times) | cytotoxicity for Hep-2 cells (in words) [3] | Selectivity Index A549 48 h ([5]; IC50 of HaCat / IC50 of A549, 48 h)
1 | COc1cccc(/C=C/C(=O)c2cccc(-n3cc(COc4cc(=O)oc5ccccc45)nn3)c2)c1OC [A] | – | 0.53 | – | – | – | – | – | – | – | – | – | – | – | – | – | – | – | – | –
2 | O=C1C(=O)N(CCCn2cc(Cn3ccc(=O)n(Cc4cn(CCCN5C(=O)C(=O)c6ccc(Cl)cc65)nn4)c3=O)nn2)c2cc(Cl)ccc21 [B] | – | – | 13.9 | – | – | – | – | – | – | – | – | – | – | – | – | – | – | – | –
3 | O=c1ccn(Cc2cn(Cc3cc(=O)oc4cc(O)cc(O)c34)nn2)c(=O)[nH]1 [Compound 7a, 1-((1-((5,7-Dihydroxy-2-oxo-2H-chromen-4-yl)methyl)-1H-1,2,3-triazol-4-yl)methyl) Pyrimidine-2,4(1H,3H)-dione] | 230 °C (dec.) | – | – | > 100 | > 100 | > 100 | > 100 | > 100 | > 100 | > 100 | > 100 | – | – | – | – | – | – | – | –
4 | Cc1cn(Cc2cn(Cc3cc(=O)oc4cc(O)cc(O)c34)nn2)c(=O)[nH]c1=O [Compound 7b, 1-((1-((5,7-Dihydroxy-2-oxo-2H-chromen-4-yl)methyl)-1H-1,2,3-triazol-4-yl)methyl)-5-methylpyrimidine-2,4(1H,3H)-dione] | 285 °C (dec.) | – | – | > 100 | > 100 | > 100 | > 100 | > 100 | > 100 | > 100 | > 100 | – | – | – | – | – | – | – | –
5 | COc1cccc2c1C(=O)c1c(O)c3c(c(O)c1C2=O)C[C@@](O)(C(=O)CO)C[C@@H]3O[C@H]1C[C@H](N)[C@H](O)[C@H](C)O1 [Doxorubicin, doxorubicin, reference compound] | – | – | – | – | 1.69 ± 0.15 | – | 1.23 ± 0.05 | – | – | – | 39.3 ± 1.59 | – | – | – | – | – | – | – | –

The next lines start with results.

Row | melting point | Structure (SMILES) | IC50 [1] [µM] | IC50 [2] [µM] | IC50 [3, 7] [µM] | IC50 [3, 8] [µM] | IC50 [4, 9] [µM] | IC50 [4, 10] [µM] | IC50 [5, 11] [µM] | IC50 [5, 12] [µM] | IC50 [6, 13] [µM] | IC50 [6, 14] [µM] | Selectivity Index HCT116 24 h [4] | Selectivity Index Hep-2 24 h [3] | activity compared to doxorubicin (fold) ([4]; HCT116 cell line, IC50 relative to doxorubicin) | Selectivity Index HCT116 48 h [4] | cytotoxicity effect against A549 cells (in words) ([5]; 24 and 48 h treatments) | cytotoxicity against the non-tumor cells HaCat (in words) ([6]; highest evaluated concentration 100 μM, all exposure times) | cytotoxicity for Hep-2 cells (in words) [3] | Selectivity Index A549 48 h ([5]; IC50 of HaCat / IC50 of A549, 48 h)
6 | 235 °C (dec.) | O=c1ccn(Cc2cn(Cc3cc(=O)oc4c3ccc3ccccc34)nn2)c(=O)[nH]1 [Compound 8a, 1-((1-((2-Oxo-2H-benzo[h]chromen-4-yl)methyl)-1H-1,2,3-triazol-4-yl)methyl) Pyrimidine-2,4(1H,3H)-dione] | – | – | > 100 | > 100 | > 100 | > 100 | > 100 | > 100 | > 100 | > 100 | – | – | – | – | – | – | – | –
7 | 270 to 272 °C | Cc1cn(Cc2cn(Cc3cc(=O)oc4c3ccc3ccccc34)nn2)c(=O)[nH]c1=O [Compound 8b, 1-((1-((2-Oxo-2H-benzo[h]chromen-4-yl)methyl)-1H-1,2,3-triazol-4-yl)methyl)-5-methylpyrimidine-2,4(1H,3H)-dione] | – | – | > 100 | > 100 | 87.6 ± 1.94 | > 100 | > 100 | > 100 | 454.1 ± 2.67 | > 100 | 5 | – | – | – | – | – | – | –
8 | 302 °C (dec.) | O=c1cc(Cn2cc(Cn3ccc(=O)n(Cc4cn(Cc5cc(=O)oc6cc(O)cc(O)c56)nn4)c3=O)nn2)c2c(O)cc(O)cc2o1 [Compound 9a, 1,3-Bis((1-((5,7-dihydroxy-2-oxo-2H-chromen-4-yl)methyl)-1H-1,2,3-triazol-4-yl)methyl)pyrimidine-2,4(1H,3H)-dione] | – | – | 51.6 ± 1.71 | > 100 | 69.2 ± 1.85 | 24.2 ± 1.39 | > 100 | > 100 | 634.9 ± 2.8 | 142 ± 2.15 | – | 12 | approximately 20 fold | 6 | No cytotoxicity effect was observed | did not exhibit appreciable cytotoxicity | – | –
9 | 193 to 195 °C | O=c1cc(Cn2cc(Cn3ccc(=O)n(Cc4cn(Cc5cc(=O)oc6c5ccc5ccccc56)nn4)c3=O)nn2)c2ccc3ccccc3c2o1 [Compound 9b, 1,3-Bis((1-((2-oxo-2H-benzo[h]chromen-4-yl)methyl)-1H-1,2,3-triazol-4-yl)methyl)pyrimidine-2,4(1H,3H)-dione] | – | – | > 100 | > 100 | 54.5 ± 1.74 | 59.2 ± 1.77 | > 100 | 51 ± 1.71 | 1049 ± 3.02 | 3228 ± 3.5 | 19 | – | – | 55 | – | – | No appreciative cytotoxicity was observed | 63
10 | 315 °C (dec.) | Cn1cnc2c1c(=O)n(Cc1cn(Cc3cc(=O)oc4cc(O)cc(O)c34)nn1)c(=O)n2C [Compound 10a, 1-((1-((5,7-Dihydroxy-2-oxo-2H-chromen-4-yl)methyl)-1H-1,2,3-triazol-4-yl)methyl)-3,7-dimethyl-3,7-dihydro-1H-purine-2,6-dione] | – | – | 56.6 ± 1.75 | > 100 | 78.3 ± 1.89 | > 100 | > 100 | > 100 | 307.8 ± 2.49 | > 100 | 4 | 5 | – | – | – | – | – | –
11 | 288 to 290 °C | Cn1cnc2c1c(=O)n(Cc1cn(Cc3cc(=O)oc4c3ccc3ccccc34)nn1)c(=O)n2C [Compound 10b, 3,7-Dimethyl-1-((1-((2-oxo-2H-benzo[h]chromen-4-yl)methyl)-1H-1,2,3-triazol-4-yl)methyl)-3,7-dihydro-1H-purine-2,6-dione] | – | – | > 100 | > 100 | 41 ± 1.61 | 84.7 ± 1.92 | > 100 | > 100 | 263.3 ± 2.42 | 120 ± 2.08 | 6 | – | – | – | – | – | – | –
